Assay [1] concerns human prostate carcinoma (22Rv1). Kind of assay: Cell proliferation test, neutral red release method, media M1-M3. In kind it is cell-based. The settings on record: 22Rv1, media M1, M2 or M3, 24 hours. The protocol:
(§1) • Healthy human prostate epithelial cells (RWEP-1, ATCC No. CRL-11609) • Human prostate carcinoma (22Rv1 ATCC No. CRL-2505) Culture: • 37° C., 5% CO2, 95% humidity
(§2) • Keratinocyte-serum free medium (KSFM) (Invitrogen, 17005-042) • Epidermal Growth Factor, 5 ng/ml (Invitrogen, 10450-013) • Bovine pituitary extract, 0.05 mg/ml (Invitrogen, 13028-014) • Penicillin 50 IU/ml-streptomycin 50 μg/ml 10 (v/v, Invitrogen 15070-063) Medium M2=Medium recommended for tumor cells (22Rv1): • RPMI 1640 medium (Invitrogen, 31870-025) • Decomplemented fetal calf serum, 10% (v/v Invitrogen 10270-098) • L-Glutamine, 1% (v/v Invitrogen 25030-024) • Penicillin 50 IU/ml-streptomycin 50 μg/ml 1 (v/v, • Invitrogen 15070-063) Medium M3=Mixed medium: • Whole keratinocyte-serum free medium, 50% (v/v) • Whole RPMI 1640 medium, 50% (v/v) […]
(§3) After 24 hours of growth, the healthy and tumoral cell lines were incubated in the presence of β-sitosterol (reference product) at 8 concentrations (see paragraph b) above) or of CPE at 8 concentrations (see paragraph b) above). […] The amount of stain incorporated into the cells is measured by spectro-photometric reading at 540 nm and is directly pro-portional to the number of live cells. The results were expressed as a percentage of inhibition relative to the untreated control.

For assay [2], the system named is healthy human prostate epithelial cells (RWEP-1). Described as above. In kind it is cell-based. The following applies: RWEP-1, media M1, M2 or M3, 24 hours. The protocol:
as §1, §2, §3

For assay [3], the system named is RWEP-1 cells. Kind of assay: Cell growth and viability (neutral red / sulforhodamine B) and morphology. In kind it is cell-based, human. Here is the method: Each product (1 to 5) was applied for 1 to 72 hours, at various concentrations. The number of cells was compared with a control, namely cells cultured in the absence of the test compound.
The RPMI-1640 medium, the fetal calf serum and the L-glutamine were supplied by Gibco BRL (Cergy Pontoise, France). The cell cultures were replaced every 5 days to ensure exponential growth. The normal human prostate cells RWEP-1 were supplied by the American Type Culture Collection (ATCC, Rockville, Md.). The cells were maintained in the form of a monolayer culture according to the usual techniques, in […] flasks, at 37° C., in an atmosphere containing 5% CO2 and at 95% humidity, in a medium free of serum and of keratinocytes, supplemented with 2.5 μg of recombinant human EGF and 25 mg of calf pituitary extract. The medium was supplied by Gibco BRL (Cergy Pontoise, France).
Five products were tested for this study and were stored protected from light, at +4° C. The β-sitosterol (product 1), obtained from Sigma Chemicals, was first dissolved in absolute ethanol, up to a final concentration of 24.1 mM. Product 2, supplied by Barry Callebaut, France, is a defatted cocoa extract containing 35.5% polyphenols and 0.081% β-sitosterol. Product 3 was reconstituted from products 1 and 2 and contained 35.5% polyphenols and 0.72% β-sitosterol. Products 4 and 5 were manufactured by Barry Callebaut, France. The composition of product 4 is unknown, and contains no β-sitosterol. Product 5 contains 35.27% polyphenols and 0.72% β-sitosterol. Products 2, 3, 4 and 5 were first dissolved in whole medium. As regards products 2, 4 and 5, the total polyphenols of the cocoa extracts originate from different countries.
Just before use, the final concentrations of products (table 1) used are prepared for the various experiments by means of stock solutions, by diluting the stock solution in whole medium. 64.2 μM of β-sitosterol is the maximum dose used in this solubility range and in the physiological range (4 to 70 μM). The absolute ethanol is at a constant concentration of 0.26% in the solvent-based control, in the negative control and in the 8 test concentrations. The ratios of the β-sitosterol and of the polyphenols for products 2, 3 and 5 are as follows: • Product 2:2:1000 • Product 3:2:100 • Product 5:2:100
The cells were inoculated on 96-well plates at an initial density of 15 000 cells/well for DU145, at an initial density of 30 000 cells/well for 22Rv1 and at an initial density of 25 000 cells/well for RWEP-1, with 200 μL of medium per well. The cell density was optimized as a function of the time required to double the population of cells, in order to obtain a significant measurement of the Optical Density (OD) and to be able to compare the various cells lines. After 24 hours, in order to ensure uniform fixing of the cells from the start of the experiments, the products were added to the cell cultures at various concentrations and at various times. After incubation with the products, the growth and viability of the cells was measured using neutral red (NR) and sulforhodamine B (SRB) combined (In Cytotox, Vandoeuvre, France). The absorption of the vital stain NR was used by the lysosomes/endosomes and by the vacuoles of the live cells as a quantitative indication of the number and viability of the cells after treatment with a chemical test. The anionic stain SRB made it possible to quantify the viable cells via measurement of the protein content of the cells.
The cytotoxicity was evaluated 1, 3, 6, 24, 48 and 72 hours after incubating the 22Rv1, RWEP-1 and DU145 cells with the products. The cells were washed with 200 μl of washing solution in order to remove the culture medium supplemented with the products. 200 μL of neutral red base medium was added and incubated with the cells at 37° C. for 3 hours. The neutral red base medium was then removed and the cells were washed twice with phosphate-buffered physiological saline (PBS). […]

Marks after values point to notes of the source that are not given here.

On to `CC[C@H](CC[C@@H](C)[C@H]1CC[C@H]2[C@@H]3CC=C4C[C@@H](O)CC[C@]4(C)[C@H]3CC[C@]12C)C(C)C` [β-sitosterol], for which the Inhibition of proliferation entry in assay [1] and in assay [2] was “weak inhibition of proliferation” in each case. The max. inhibition is listed as 15%^b in assay [3] (24 h, RWEP1, NR); 9% in assay [3] (24 h, RWEP1, SRB); 29% in assay [3] (48 h, RWEP1, NR); 48% in assay [3] (48 h, RWEP1, SRB); 11% in assay [3] (72 h, RWEP1, NR); 26% in assay [3] (72 h, RWEP1, SRB). Moreover, the IC50 result in assay [3] (RWEP-1, between 1 and 72 hours of treatment) is given as “never reached”.

Values taken from patent publication US8435576B2, “Use of cocoa polyphenols for treating a prostate hyperplasia, a specific cocoa extract and applications” (Barry Callebaut AG, priority 2005, dated 2013).
